Source: patent publication US10040781B2, “Tank-binding kinase inhibitor compounds” (Gilead Sciences, Inc., priority 2014, dated 2018)

Key:
IKKε = IKKε (Homo sapiens (Human), UniProt Q14164); experiment: IKKε TR-FRET enzymatic assay; assay type: biochemical; conditions: read-out: IKKe IC50
hJAK2 = hJAK2 (Homo sapiens (Human), UniProt O60674); experiment: hJAK2 LANCE TR-FRET enzymatic assay; assay type: biochemical; conditions: read-out: JAK2 IC50
TBK1 = TBK1 (Homo sapiens (Human), UniProt Q9UHD2); experiment: TBK1 TR-FRET enzymatic assay;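 note: phosphorylation of a biotinylated Ser/Thr peptide by purified full-length recombinant TBK1, read by TR-FRET after 240 min at 25 °C, IC50 is the geometric mean of at least four runs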
Chain of TBK1 (Q9UHD2 whole entry): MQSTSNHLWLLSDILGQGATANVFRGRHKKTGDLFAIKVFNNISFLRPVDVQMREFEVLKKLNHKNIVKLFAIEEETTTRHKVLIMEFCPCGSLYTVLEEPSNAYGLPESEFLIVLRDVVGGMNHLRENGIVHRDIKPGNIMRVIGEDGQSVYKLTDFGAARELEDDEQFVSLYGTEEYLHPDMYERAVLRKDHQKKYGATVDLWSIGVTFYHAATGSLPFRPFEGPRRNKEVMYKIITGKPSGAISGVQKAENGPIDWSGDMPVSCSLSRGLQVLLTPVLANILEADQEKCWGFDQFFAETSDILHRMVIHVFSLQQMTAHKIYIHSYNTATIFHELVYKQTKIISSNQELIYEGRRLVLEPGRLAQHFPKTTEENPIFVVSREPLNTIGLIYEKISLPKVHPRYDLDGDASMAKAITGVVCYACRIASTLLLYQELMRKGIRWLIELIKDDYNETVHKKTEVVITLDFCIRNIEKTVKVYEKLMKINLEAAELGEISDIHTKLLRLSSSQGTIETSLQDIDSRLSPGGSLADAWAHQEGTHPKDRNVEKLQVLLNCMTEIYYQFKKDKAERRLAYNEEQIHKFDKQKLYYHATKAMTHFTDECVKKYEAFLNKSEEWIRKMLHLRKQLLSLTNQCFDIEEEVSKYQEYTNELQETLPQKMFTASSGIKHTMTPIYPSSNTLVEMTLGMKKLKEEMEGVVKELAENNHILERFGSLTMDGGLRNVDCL

Chain of IKKε (Q14164 whole entry): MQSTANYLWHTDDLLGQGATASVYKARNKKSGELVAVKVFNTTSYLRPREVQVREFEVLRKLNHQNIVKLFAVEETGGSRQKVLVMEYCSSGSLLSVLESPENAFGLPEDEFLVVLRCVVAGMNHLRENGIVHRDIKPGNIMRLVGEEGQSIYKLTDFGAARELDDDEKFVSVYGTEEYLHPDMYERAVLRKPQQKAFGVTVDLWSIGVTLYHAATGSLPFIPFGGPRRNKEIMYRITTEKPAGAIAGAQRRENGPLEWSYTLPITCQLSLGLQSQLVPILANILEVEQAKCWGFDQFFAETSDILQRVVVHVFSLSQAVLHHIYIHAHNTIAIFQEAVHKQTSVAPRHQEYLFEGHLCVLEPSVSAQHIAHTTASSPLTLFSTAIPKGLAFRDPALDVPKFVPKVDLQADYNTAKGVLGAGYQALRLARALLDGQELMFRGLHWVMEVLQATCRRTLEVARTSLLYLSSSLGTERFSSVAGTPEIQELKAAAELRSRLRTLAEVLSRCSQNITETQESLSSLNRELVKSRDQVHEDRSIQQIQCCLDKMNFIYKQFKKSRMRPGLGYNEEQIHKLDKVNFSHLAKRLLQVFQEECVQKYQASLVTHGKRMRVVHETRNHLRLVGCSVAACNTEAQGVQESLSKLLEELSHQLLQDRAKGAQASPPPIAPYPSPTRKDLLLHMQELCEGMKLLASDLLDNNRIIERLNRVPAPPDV
Chain of hJAK2 (O60674 whole entry): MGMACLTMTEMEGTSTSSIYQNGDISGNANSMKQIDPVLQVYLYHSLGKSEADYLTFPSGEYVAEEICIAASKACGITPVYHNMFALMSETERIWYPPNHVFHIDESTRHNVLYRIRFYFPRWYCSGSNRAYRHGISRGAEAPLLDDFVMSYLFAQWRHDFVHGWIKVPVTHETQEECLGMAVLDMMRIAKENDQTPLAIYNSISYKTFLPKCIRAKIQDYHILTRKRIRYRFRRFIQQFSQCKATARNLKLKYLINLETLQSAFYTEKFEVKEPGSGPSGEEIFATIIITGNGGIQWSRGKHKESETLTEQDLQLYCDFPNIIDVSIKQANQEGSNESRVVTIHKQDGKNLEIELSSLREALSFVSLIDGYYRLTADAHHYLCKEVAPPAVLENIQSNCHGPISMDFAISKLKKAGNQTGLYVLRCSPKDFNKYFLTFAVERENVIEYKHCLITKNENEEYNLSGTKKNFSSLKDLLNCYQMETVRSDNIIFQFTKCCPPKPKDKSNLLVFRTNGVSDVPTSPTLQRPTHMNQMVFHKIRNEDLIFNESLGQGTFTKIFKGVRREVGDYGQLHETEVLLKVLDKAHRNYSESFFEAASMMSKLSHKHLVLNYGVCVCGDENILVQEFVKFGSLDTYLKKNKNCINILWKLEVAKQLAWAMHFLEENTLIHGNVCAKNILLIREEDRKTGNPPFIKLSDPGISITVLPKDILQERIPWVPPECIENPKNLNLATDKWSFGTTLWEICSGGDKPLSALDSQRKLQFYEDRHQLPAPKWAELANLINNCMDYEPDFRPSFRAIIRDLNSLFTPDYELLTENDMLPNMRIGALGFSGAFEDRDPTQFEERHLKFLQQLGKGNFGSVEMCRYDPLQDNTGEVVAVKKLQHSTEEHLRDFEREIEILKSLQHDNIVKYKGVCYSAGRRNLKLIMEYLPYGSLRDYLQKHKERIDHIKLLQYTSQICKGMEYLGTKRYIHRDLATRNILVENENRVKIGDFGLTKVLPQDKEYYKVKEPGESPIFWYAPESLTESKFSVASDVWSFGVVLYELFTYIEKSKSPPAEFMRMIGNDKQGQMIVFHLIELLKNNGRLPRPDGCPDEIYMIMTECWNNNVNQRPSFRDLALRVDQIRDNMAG

| SMILES | IC50 (IKKε) | IC50 (hJAK2) | IC50 (TBK1) |
| --- | --- | --- | --- |
| N#Cc1cc(-c2ncnc(Nc3ccc(N4CCN(C5COC5)CC4)cc3)n2)ccc1OC1CCSCC1 [Example 19, 5-(4-((4-(4-(oxetan-3-yl)piperazin-1-yl)phenyl)amino)-1,3,5-triazin-2-yl)-2-((tetrahydro-2H-thiopyran-4-yl)oxy)benzonitrile] | 4 nM | > 1000 nM | 1 nM |
| COc1cc(Nc2ncnc(-c3ccc(OC4CCOCC4)c(C#N)c3)n2)ccc1C1CCN(C2COC2)CC1 [Example 20, 5-(4-((3-methoxy-4-(1-(oxetan-3-yl)piperidin-4-yl)phenyl)amino)-1,3,5-triazin-2-yl)-2-((tetrahydro-2H-pyran-4-yl)oxy)benzonitrile] | 2 nM | > 1000 nM | 2 nM |
| COc1cc(Nc2ncnc(-c3ccc(OC4CCOCC4)c(C#N)c3)n2)ccc1C(N)=O [Example 21, 4-((4-(3-cyano-4-((tetrahydro-2H-pyran-4-yl)oxy)phenyl)-1,3,5-triazin-2-yl)amino)-2-methoxybenzamide] | 6 nM | > 1000 nM | 4 nM |
| COc1cc(Nc2ncnc(-c3ccc(O[C@@H]4CCN(C(=O)CO)C4)c(C#N)c3)n2)ccc1N1CCN(C2COC2)CC1 [Example 22, (R)-2-((1-(2-hydroxyacetyl)pyrrolidin-3-yl)oxy)-5-(4-((3-methoxy-4-(4-(oxetan-3-yl)piperazin-1-yl)phenyl)amino)-1,3,5-triazin-2-yl)benzonitrile] | 8 nM | 128 nM | 3 nM |
| C[C@H](O)C(=O)N1CCC(Oc2ccc(-c3ncnc(Nc4ccc(C5CCN(C6COC6)CC5)cc4)n3)cc2C#N)CC1 [Example 23, (S)-2-((1-(2-hydroxypropanoyl)piperidin-4-yl)oxy)-5-(4-((4-(1-(oxetan-3-yl)piperidin-4-yl)phenyl)amino)-1,3,5-triazin-2-yl)benzonitrile] | 10 nM | > 1000 nM | 6 nM |
| COc1cc(Nc2ncnc(-c3ccc(OC4CCOCC4)c(C#N)c3)n2)cc(OC)c1OC [Example 24, 2-((tetrahydro-2H-pyran-4-yl)oxy)-5-(4-((3,4,5-trimethoxyphenyl)amino)-1,3,5-triazin-2-yl)benzonitrile] | 2 nM | 602 nM | 1 nM |
| N#Cc1cc(-c2ncnc(Nc3ccc(N4CCN(C5COC5)CC4)c(F)c3)n2)ccc1OC1CCOCC1 [Example 27, 5-(4-((3-fluoro-4-(4-(oxetan-3-yl)piperazin-1-yl)phenyl)amino)-1,3,5-triazin-2-yl)-2-((tetrahydro-2H-pyran-4-yl)oxy)benzonitrile] | 7 nM | 988 nM | 2 nM |
| N#Cc1cc(-c2ncnc(Nc3ccc(N4CCN(C5COC5)CC4)cc3)n2)ccc1N1CCCC1=O [Example 28, 5-[4-[4-[4-(oxetan-3-yl)piperazin-1-yl]anilino]-1,3,5-triazin-2-yl]-2-(2-oxopyrrolidin-1-yl)benzonitrile] | 529 nM | 583 nM | 225 nM |
| COc1cc(Nc2ncnc(-c3ccc(OC4CCOCC4)c(C#N)c3)n2)ccc1OC(F)F [Example 31, 5-(4-((4-(difluoromethoxy)-3-methoxyphenyl)amino)-1,3,5-triazin-2-yl)-2-((tetrahydro-2H-pyran-4-yl)oxy)benzonitrile] | 20 nM | > 1000 nM | 9 nM |
| COc1cc(Nc2ncnc(-c3ccc(OC4CCOCC4)c(C#N)c3)n2)ccc1N1CCN(C(C)=O)CC1 [Example 32, 5-(4-((4-(4-acetylpiperazin-1-yl)-3-methoxyphenyl)amino)-1,3,5-triazin-2-yl)-2-((tetrahydro-2H-pyran-4-yl)oxy)benzonitrile] | 2 nM | 68 nM | 1 nM |
| COc1cc(Nc2ncnc(-c3ccc(OC4CCS(=O)(=O)CC4)c(C#N)c3)n2)ccc1N1CCN(C2COC2)CC1 [Example 33, 2-((1,1-dioxidotetrahydro-2H-thiopyran-4-yl)oxy)-5-(4-((3-methoxy-4-(4-(oxetan-3-yl)piperazin-1-yl)phenyl)amino)-1,3,5-triazin-2-yl)benzonitrile] | 18 nM | 59 nM | 4 nM |
| N#Cc1cc(-c2ncnc(Nc3ccc(N4CCN(C5COC5)CC4)cc3)n2)ccc1OC1CCCOC1 (stereo not drawn) [Example 34, 5-(4-((4-(4-(oxetan-3-yl)piperazin-1-yl)phenyl)amino)-1,3,5-triazin-2-yl)-2-((tetrahydro-2H-pyran-3-yl)oxy)benzonitrile] | 45 nM | > 1000 nM | 12 nM |
| N#Cc1cc(-c2ncnc(Nc3ccc(N4CCN(C5COC5)CC4)cc3)n2)ccc1N1CC(O)C1 [Example 35, 2-(3-hydroxyazetidin-1-yl)-5-(4-((4-(4-(oxetan-3-yl)piperazin-1-yl)phenyl)amino)-1,3,5-triazin-2-yl)benzonitrile] | 29 nM | 166 nM | 7 nM |
| N#Cc1cc(Nc2ncnc(-c3ccc(OC4CCOCC4)c(C#N)c3)n2)ccc1OC1CCOCC1 [Example 36, 5-((4-(3-cyano-4-((tetrahydro-2H-pyran-4-yl)oxy)phenyl)-1,3,5-triazin-2-yl)amino)-2-((tetrahydro-2H-pyran-4-yl)oxy)benzonitrile] | 12 nM | > 1000 nM | 10 nM |
| N#Cc1cc(-c2ncnc(Nc3ccc(N4CCN(C5COC5)CC4)c(C#N)c3)n2)ccc1OC1CCOCC1 [Example 38, 5-((4-(3-cyano-4-((tetrahydro-2H-pyran-4-yl)oxy)phenyl)-1,3,5-triazin-2-yl)amino)-2-(4-(oxetan-3-yl)piperazin-1-yl)benzonitrile] | 6 nM | > 1000 nM | 3 nM |
| C=CC(=O)Nc1ccc(Nc2ncnc(-c3ccc(OC4CCOCC4)c(C#N)c3)n2)cc1 [Example 39, N-(4-((4-(3-cyano-4-((tetrahydro-2H-pyran-4-yl)oxy)phenyl)-1,3,5-triazin-2-yl)amino)phenyl)acrylamide] | 35 nM | > 1000 nM | 6 nM |
| CC(C)(O)c1ccc(Nc2ncnc(-c3ccc(OC4CCOCC4)c(C#N)c3)n2)cc1 [Example 40, 5-(4-((4-(2-hydroxypropan-2-yl)phenyl)amino)-1,3,5-triazin-2-yl)-2-((tetrahydro-2H-pyran-4-yl)oxy)benzonitrile] | 23 nM | > 1000 nM | 6 nM |
| CNC(=O)N1CCC(Oc2ccc(-c3ncnc(Nc4ccc(N5CCN(C6COC6)CC5)cc4)n3)cc2C#N)CC1 [Example 41, 4-(2-cyano-4-(4-((4-(4-(oxetan-3-yl)piperazin-1-yl)phenyl)amino)-1,3,5-triazin-2-yl)phenoxy)-N-methylpiperidine-1-carboxamide] | 110 nM | > 1000 nM | 35 nM |
| N#Cc1cc(-c2ncnc(Nc3ccc(N4CCOCC4)cc3)n2)ccc1NC(=O)C1CC1 [Example 42, N-(2-cyano-4-(4-((4-morpholinophenyl)amino)-1,3,5-triazin-2-yl)phenyl)cyclopropanecarboxamide] | 71 nM | 24 nM | 35 nM |
| N#Cc1cc(-c2ncnc(Nc3ccc(N4CCN(C5COC5)CC4)nc3)n2)ccc1OC1CCOCC1 [Example 43, 5-(4-((6-(4-(oxetan-3-yl)piperazin-1-yl)pyridin-3-yl)amino)-1,3,5-triazin-2-yl)-2-((tetrahydro-2H-pyran-4-yl)oxy)benzonitrile] | 15 nM | > 1000 nM | 7 nM |
| CC(C)(O)C(=O)N1CCC(Oc2ccc(-c3ncnc(Nc4ccc(N5CCN(C6COC6)CC5)cc4)n3)cc2C#N)CC1 [Example 45, 2-((1-(2-hydroxy-2-methylpropanoyl)piperidin-4-yl)oxy)-5-(4-((4-(4-(oxetan-3-yl)piperazin-1-yl)phenyl)amino)-1,3,5-triazin-2-yl)benzonitrile] | 243 nM | > 1000 nM | 202 nM |
| CC(C)NC(=O)c1ccc(Nc2ncnc(-c3ccc(OC4CCOCC4)c(C#N)c3)n2)cc1 [Example 46, 4-((4-(3-cyano-4-((tetrahydro-2H-pyran-4-yl)oxy)phenyl)-1,3,5-triazin-2-yl)amino)-N-isopropylbenzamide] | 9 nM | 670 nM | 3 nM |
| CC(C)(O)c1cccc(Nc2ncnc(-c3ccc(OC4CCOCC4)c(C#N)c3)n2)c1 [Example 47, 5-(4-((3-(2-hydroxypropan-2-yl)phenyl)amino)-1,3,5-triazin-2-yl)-2-((tetrahydro-2H-pyran-4-yl)oxy)benzonitrile] | 14 nM | 811 nM | 2 nM |
| N#Cc1cc(-c2ncnc(Nc3cccc(C(O)C(F)(F)F)c3)n2)ccc1OC1CCOCC1 (stereo not drawn) [Example 48, 2-((tetrahydro-2H-pyran-4-yl)oxy)-5-(4-((3-(2,2,2-trifluoro-1-hydroxyethyl)phenyl)amino)-1,3,5-triazin-2-yl)benzonitrile] | 31 nM | > 1000 nM | 3 nM |
| N#Cc1cc(-c2ncnc(Nc3ccc(N4CCOCC4)cc3)n2)ccc1OC1CCOCC1 [Example 49, 5-(4-((4-morpholinophenyl)amino)-1,3,5-triazin-2-yl)-2-((tetrahydro-2H-pyran-4-yl)oxy)benzonitrile] | 7 nM | 436 nM | 2 nM |
| N#Cc1cc(-c2ncnc(Nc3ccc(N4CCN(C5COC5)CC4)cc3)n2)ccc1OC1CCN(C(=O)CNC=O)CC1 [Example 51, N-(2-(4-(2-cyano-4-(4-((4-(4-(oxetan-3-yl)piperazin-1-yl)phenyl)amino)-1,3,5-triazin-2-yl)phenoxy)piperidin-1-yl)-2-oxoethyl)formamide] | 79 nM | 408 nM | 26 nM |
| CC(=O)NCC(=O)N1CCC(Oc2ccc(-c3ncnc(Nc4ccc(N5CCN(C6COC6)CC5)cc4)n3)cc2C#N)CC1 [Example 52, N-(2-(4-(2-cyano-4-(4-((4-(4-(oxetan-3-yl)piperazin-1-yl)phenyl)amino)-1,3,5-triazin-2-yl)phenoxy)piperidin-1-yl)-2-oxoethyl)acetamide] | 223 nM | 491 nM | 65 nM |
